# According to article PMC12406195, “Understanding the Modes of Action of β‑Ketoiminato Iridium(III) Complexes in Cancer Cells” (Inorganic Chemistry, 2025):
# How the values were obtained:
# MDA-MB-231 cells [1] = assay: Acridine orange/ethidium bromide (AO/EB) staining; type: cell-based, human; conditions: MDA-MB-231, 48 h
# Procedure: To investigate how the drugs impacted cell viability, acridine orange (AO)/ethidium bromide (EtBr) staining was employed to identify the MDA-MB-231 cells' mode of death in response to compound 1 or CDDP, with AO marking early apoptotic cells in green and EtBr marking late apoptotic or necrotic cells in red. […] This effect was more pronounced than with CDDP, indicating its higher efficacy.
# MDA-MB-231 cells at 4000 cells/well were seeded into a black clear -bottom 96-well plate using phenol-red free complete RMPI medium, and incubated for 48 h. The cells were treated with 100 µM of 1 for 4 h alongside an untreated sample (control). […] Fluorescence images were obtained using a Zeiss Observer 7 inverted microscope at excitation at 488 nm and emission at 509 […]
# Plasmid DNA (200 ng, pBOS -H2B-GFP, BD Biosciences) was incubated overnight at room temperature with 1 or CDDP at concentrations between 100 and 400 μM in double -distilled H2O (20 μL total volume). […] The experiment was conducted in two biological replicates, and the band intensities were quantified and analyzed using ImageJ software. […]
# MDA-MB-231 cells were seeded in 6-well plates at a density of 1.2 × 10⁵ cells/well. […] The samples were then placed on microscope slides, covered with a coverslip, and their morphology was examined using a fluorescence microscope (Eclipse TS100, Nikon). […]
# MDA-MB-231 cells [2] = assay: 3D spheroid live/dead viability assay; type: cell-based, human; conditions: MDA-MB-231 spheroids, 100 μM, 48 h
# Procedure: 3D cell cultures of cancer are good models for preclinical cancer research, as they are more representative of tumor microenvironments. MDA-MB-231 cells were maintained using the standard cell culture methods before seeding into round-bottom ultralow-attachment plates for 3D culture. Once the cells were seeded, the plate was centrifuged to assist with cell clumping at the bottom of the well and facilitate uniform spheroid formation. After 24 h, medium containing collagen I was added, and the cells were allowed to aggregate further. After sufficient growth of the spheroids (Day 4 – Figure ), the cells were treated with 100 μM of 1 for 48 h. The higher concentration was chosen, as it has been reported that spheroids require higher drug doses than two-dimensional (2D) experiments.
# Live and dead cells were then visualized using the LIVE/DEAD Viability/Cytotoxicity Kit by Invitrogen. […]
# An equal volume of Annexin V and 7-AAD solution was added to 100 μL of the cell suspension, followed by a 20 min incubation at room temperature. The cells were then analyzed using the Muse Cell Analyzer (Merck Millipore). […]
# A mixture of 50 μL of cell suspension and 5 μL of Caspase 3/7 antibody (diluted 1:8 in PBS) was prepared and incubated at room temperature for 30 minutes. […] Apoptotic cells were analyzed using the Muse Cell Analyzer. […]
substance,measurement,setting,value
[Cp*Ir(C16H14NO)(PTA)](PF6) [Compound 1],AO/EtBr staining (mode of cell death),MDA-MB-231 cells [1],increased staining for both dyes
same,Cytotoxicity in 3D spheroids (live/dead staining),MDA-MB-231 cells [2],significant cytotoxicity
